Results: patent US5849766A, “Carbamoyl substituted heterocycles” (Eli Lilly and Company, priority 1997, dated 1998)

Tested on: thromboxane receptor
Experiment: Absence of Agonist Activity (pressor response in pithed rats)
Format: in vivo, rat
Description: 3. Absence of Agonist Activity.

Structure (SMILES)	pressor response (TXA2 agonist activity) (i.v., pithed rats, doses up to 10 mg/kg)	increase in the mean arterial pressure (0.1 mg/kg i.v., at one minute after dosing)
O=C(O)CCCC/C=C(\c1ccc(-c2nc(C(=O)NCCCCC3CCCCC3)co2)cc1)c1cccnc1 [Example 2, (E)-7-[4-[4-[[(4-Cyclohexylbutyl)amino]carbonyl]-2-oxazolyl]phenyl]-7-(3-pyridyl)hept-6-enoic Acid]	absence of a pressor response	
O=C(O)CCC/C=C\CC1C2CCC(C2)C1NS(=O)(=O)c1ccccc1 (centres unmarked) [Example S-145]		transient, but significant, increase in the mean arterial pressure
